# Measurements: ChEMBL document CHEMBL3608278 (J Med Chem, 2015)
# Key:
# [1] = biological target: T1, Potassium voltage-gated channel subfamily A member 3 (Homo sapiens, UniProt P22001); type: cell-based, CHO-K1
# [2] = biological target: T1, Potassium voltage-gated channel subfamily A member 3; assay: cell-based; design: species or system Blood
# [3] = biological target: T1, Potassium voltage-gated channel subfamily A member 3; design: species or system Blood
# T1 sequence (P22001 whole entry): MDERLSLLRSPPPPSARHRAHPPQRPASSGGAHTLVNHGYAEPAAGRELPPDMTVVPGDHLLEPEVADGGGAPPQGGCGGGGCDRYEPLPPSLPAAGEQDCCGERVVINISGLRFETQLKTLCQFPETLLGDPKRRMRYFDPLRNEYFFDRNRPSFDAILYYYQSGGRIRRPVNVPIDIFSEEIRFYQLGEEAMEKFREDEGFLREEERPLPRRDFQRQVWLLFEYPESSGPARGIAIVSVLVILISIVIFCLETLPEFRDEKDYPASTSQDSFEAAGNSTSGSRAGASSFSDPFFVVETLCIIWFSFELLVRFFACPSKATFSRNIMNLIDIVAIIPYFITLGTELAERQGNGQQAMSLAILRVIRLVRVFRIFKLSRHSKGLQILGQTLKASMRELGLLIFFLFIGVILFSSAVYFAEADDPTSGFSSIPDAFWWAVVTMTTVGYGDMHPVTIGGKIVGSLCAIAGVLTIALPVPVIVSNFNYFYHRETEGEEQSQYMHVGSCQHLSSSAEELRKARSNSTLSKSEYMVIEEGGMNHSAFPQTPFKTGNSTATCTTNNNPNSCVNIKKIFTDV
Structure (SMILES),IC50 [1] [nM],IC50 [2] [nM],IC50 [3] [nM]
CC[C@H](C)[C@@H]1NC(=O)[C@@H](NC(=O)[C@H](CO)NC(=O)[C@@H](N)CCCNC(=N)N)CSSC[C@@H](C(=O)O)NC(=O)[C@H]([C@@H](C)O)NC(=O)CNC(=O)[C@@H]2CSSC[C@@H]3NC(=O)[C@H](CCC(N)=O)NC(=O)[C@H](Cc4ccccc4)NC(=O)[C@H](C)NC(=O)[C@H]([C@@H](C)O)NC(=O)[C@H](CSSC[C@H](NC(=O)[C@H](Cc4ccccc4)NC(=O)[C@H](CO)NC(=O)[C@H](CC(C)C)NC(=O)[C@H](CCCNC(=N)N)NC(=O)[C@H](Cc4ccc(O)cc4)NC(=O)[C@H](CCCCN)NC(=O)[C@H](CCSC)NC(=O)[C@H](CO)NC(=O)[C@H](Cc4cnc[nH]4)NC(=O)[C@H](CCCCN)NC3=O)C(=O)N[C@@H](CCCNC(=N)N)C(=O)N[C@@H](CCCCN)C(=O)N[C@@H]([C@@H](C)O)C(=O)N2)NC(=O)[C@H](CCCNC(=N)N)NC(=O)[C@H](CCCNC(=N)N)NC(=O)[C@H](CCCCN)NC(=O)[C@@H]2CCCN2C(=O)[C@H]([C@@H](C)CC)NC(=O)[C@H]([C@@H](C)O)NC(=O)[C@H](CC(=O)O)NC1=O,0.073,0.072,0.129
CC[C@H](C)[C@@H]1NC(=O)[C@@H](NC(=O)[C@H](CO)NC(=O)[C@@H](N)CCCNC(=N)N)CSSC[C@@H](C(=O)O)NC(=O)[C@H]([C@@H](C)O)NC(=O)CNC(=O)[C@@H]2CSSC[C@@H]3NC(=O)[C@H](CCC(N)=O)NC(=O)[C@H](Cc4ccccc4)NC(=O)[C@H](C)NC(=O)[C@H]([C@@H](C)O)NC(=O)[C@H](CSSC[C@H](NC(=O)[C@H](Cc4ccccc4)NC(=O)[C@H](CO)NC(=O)[C@H](CC(C)C)NC(=O)[C@H](CCCNC(=N)N)NC(=O)[C@H](Cc4ccc(O)cc4)NC(=O)[C@H](CCCCN)NC(=O)[C@H](CCSC)NC(=O)[C@H](CO)NC(=O)[C@H](Cc4cnc[nH]4)NC(=O)[C@H](CCCCN)NC3=O)C(=O)N[C@@H](CCCNC(=N)N)C(=O)N[C@@H](CCCCN)C(=O)N[C@@H]([C@@H](C)O)C(=O)N2)NC(=O)[C@H](CCCNC(=N)N)NC(=O)[C@H](CO)NC(=O)[C@H](C)NC(=O)[C@@H]2CCCN2C(=O)[C@H]([C@@H](C)CC)NC(=O)[C@H]([C@@H](C)O)NC(=O)[C@H](CC(=O)O)NC1=O,0.119,0.045,0.081
CC[C@H](C)[C@@H]1NC(=O)[C@@H](NC(=O)[C@H](CO)NC(=O)[C@@H](N)CCCNC(=N)N)CSSC[C@@H](C(=O)O)NC(=O)[C@H]([C@@H](C)O)NC(=O)CNC(=O)[C@@H]2CSSC[C@@H]3NC(=O)[C@H](CCC(N)=O)NC(=O)[C@H](Cc4ccccc4)NC(=O)[C@H](C)NC(=O)[C@H]([C@@H](C)O)NC(=O)[C@H](CSSC[C@H](NC(=O)[C@H](Cc4ccccc4)NC(=O)[C@H](CO)NC(=O)[C@H](CC(C)C)NC(=O)[C@H](CCCNC(=N)N)NC(=O)[C@H](Cc4ccc(O)cc4)NC(=O)[C@H](CCCCN)NC(=O)[C@H](CCSC)NC(=O)[C@H](CO)NC(=O)[C@H](Cc4cnc[nH]4)NC(=O)[C@H](CCCCN)NC3=O)C(=O)N[C@@H](Cc3cccc4ccccc34)C(=O)N[C@@H](CCCCN)C(=O)N[C@@H]([C@@H](C)O)C(=O)N2)NC(=O)[C@H](CCCNC(=N)N)NC(=O)[C@H](CO)NC(=O)[C@H](CCCCN)NC(=O)[C@@H]2CCCN2C(=O)[C@H]([C@@H](C)CC)NC(=O)[C@H]([C@@H](C)O)NC(=O)[C@H](CC(=O)O)NC1=O,> 3.33,4.72,8.08
